# Assay results as given in patent US20240383901A1, “SUBSTITUTED PYRROLO[2,3-D]PYRIMIDINES, THEIR PREPARATION AND THEIR THERAPEUTIC APPLICATION” (SANOFI, priority 2021, published 2024).
# How the values were obtained:
# full-length LRRK2 G2019S = target: T1, full-length LRRK2 G2019S (Homo sapiens, UniProt Q5S007, G2019S); experiment: LRRK2-G2019S kinase activity assay (Lanthascreen TR-FRET); format: biochemical; settings: 1.1 mM ATP
# T1 construct: DYKDDDDK (FLAG)
# Description: (§1) The potency of compounds was evaluated in vitro using the Lanthascreen® technology (ThermoFisher Scientific).
# (§2) In a typical experiment, the reaction assay buffer contains 50 mM Tris pH8.2, 1 mM EGTA, 2.5 mM MgCl2, 0.05% Triton X100, 0.15% BSA and 1 mM DTT. The detection of the assay is performed using 1 nM Terbium labeled anti-phospho-LRRKtide (ThermoFisher Scientific) diluted in a TR-FRET buffer (ThermoFisher Scientific).
# (§3) The experimental procedure was performed with Greiner small volume® 384-well. […] The working solution of compounds was prepared in a separate Greiner microplate.
# (§4) The kinase reaction was initiated by addition of the ATP/LRRKtide substrate mix diluted in the reaction assay buffer. The reaction mix was incubated for at least 10 minutes at room temperature (initial velocity conditions). Reaction was stopped by addition of Terbium labeled anti-phospho-LRRKtide diluted into the detection buffer supplemented with EDTA (ThermoFisher Scientific). Plates are incubated for at least 30 minutes at room temperature and read on an Envision™ multimode plate reader (PerkinElmer) with LanthaScreen™. The TR-FRET 520:495 nm emission ratio was calculated and used to determine the IC50 value from a dose response curve fit to the 4-parameter logistic equation. The activity with respect to LRRK2 kinase in this test is given by the concentration which inhibits 50% of the LRRK2 activity (or IC50) in nM.
# [1] = target: T2, full-length LRRK2 wild type (Homo sapiens, UniProt Q5S007); experiment: LRRK2 WT assay (Assay A, Lanthascreen TR-FRET, 500 uM ATP); format: biochemical; settings: Assay A (values without *)
# T2 construct: DYDDDDK tagged full-length LRRK2 wild type is used
# T2 sequence (Q5S007 whole entry): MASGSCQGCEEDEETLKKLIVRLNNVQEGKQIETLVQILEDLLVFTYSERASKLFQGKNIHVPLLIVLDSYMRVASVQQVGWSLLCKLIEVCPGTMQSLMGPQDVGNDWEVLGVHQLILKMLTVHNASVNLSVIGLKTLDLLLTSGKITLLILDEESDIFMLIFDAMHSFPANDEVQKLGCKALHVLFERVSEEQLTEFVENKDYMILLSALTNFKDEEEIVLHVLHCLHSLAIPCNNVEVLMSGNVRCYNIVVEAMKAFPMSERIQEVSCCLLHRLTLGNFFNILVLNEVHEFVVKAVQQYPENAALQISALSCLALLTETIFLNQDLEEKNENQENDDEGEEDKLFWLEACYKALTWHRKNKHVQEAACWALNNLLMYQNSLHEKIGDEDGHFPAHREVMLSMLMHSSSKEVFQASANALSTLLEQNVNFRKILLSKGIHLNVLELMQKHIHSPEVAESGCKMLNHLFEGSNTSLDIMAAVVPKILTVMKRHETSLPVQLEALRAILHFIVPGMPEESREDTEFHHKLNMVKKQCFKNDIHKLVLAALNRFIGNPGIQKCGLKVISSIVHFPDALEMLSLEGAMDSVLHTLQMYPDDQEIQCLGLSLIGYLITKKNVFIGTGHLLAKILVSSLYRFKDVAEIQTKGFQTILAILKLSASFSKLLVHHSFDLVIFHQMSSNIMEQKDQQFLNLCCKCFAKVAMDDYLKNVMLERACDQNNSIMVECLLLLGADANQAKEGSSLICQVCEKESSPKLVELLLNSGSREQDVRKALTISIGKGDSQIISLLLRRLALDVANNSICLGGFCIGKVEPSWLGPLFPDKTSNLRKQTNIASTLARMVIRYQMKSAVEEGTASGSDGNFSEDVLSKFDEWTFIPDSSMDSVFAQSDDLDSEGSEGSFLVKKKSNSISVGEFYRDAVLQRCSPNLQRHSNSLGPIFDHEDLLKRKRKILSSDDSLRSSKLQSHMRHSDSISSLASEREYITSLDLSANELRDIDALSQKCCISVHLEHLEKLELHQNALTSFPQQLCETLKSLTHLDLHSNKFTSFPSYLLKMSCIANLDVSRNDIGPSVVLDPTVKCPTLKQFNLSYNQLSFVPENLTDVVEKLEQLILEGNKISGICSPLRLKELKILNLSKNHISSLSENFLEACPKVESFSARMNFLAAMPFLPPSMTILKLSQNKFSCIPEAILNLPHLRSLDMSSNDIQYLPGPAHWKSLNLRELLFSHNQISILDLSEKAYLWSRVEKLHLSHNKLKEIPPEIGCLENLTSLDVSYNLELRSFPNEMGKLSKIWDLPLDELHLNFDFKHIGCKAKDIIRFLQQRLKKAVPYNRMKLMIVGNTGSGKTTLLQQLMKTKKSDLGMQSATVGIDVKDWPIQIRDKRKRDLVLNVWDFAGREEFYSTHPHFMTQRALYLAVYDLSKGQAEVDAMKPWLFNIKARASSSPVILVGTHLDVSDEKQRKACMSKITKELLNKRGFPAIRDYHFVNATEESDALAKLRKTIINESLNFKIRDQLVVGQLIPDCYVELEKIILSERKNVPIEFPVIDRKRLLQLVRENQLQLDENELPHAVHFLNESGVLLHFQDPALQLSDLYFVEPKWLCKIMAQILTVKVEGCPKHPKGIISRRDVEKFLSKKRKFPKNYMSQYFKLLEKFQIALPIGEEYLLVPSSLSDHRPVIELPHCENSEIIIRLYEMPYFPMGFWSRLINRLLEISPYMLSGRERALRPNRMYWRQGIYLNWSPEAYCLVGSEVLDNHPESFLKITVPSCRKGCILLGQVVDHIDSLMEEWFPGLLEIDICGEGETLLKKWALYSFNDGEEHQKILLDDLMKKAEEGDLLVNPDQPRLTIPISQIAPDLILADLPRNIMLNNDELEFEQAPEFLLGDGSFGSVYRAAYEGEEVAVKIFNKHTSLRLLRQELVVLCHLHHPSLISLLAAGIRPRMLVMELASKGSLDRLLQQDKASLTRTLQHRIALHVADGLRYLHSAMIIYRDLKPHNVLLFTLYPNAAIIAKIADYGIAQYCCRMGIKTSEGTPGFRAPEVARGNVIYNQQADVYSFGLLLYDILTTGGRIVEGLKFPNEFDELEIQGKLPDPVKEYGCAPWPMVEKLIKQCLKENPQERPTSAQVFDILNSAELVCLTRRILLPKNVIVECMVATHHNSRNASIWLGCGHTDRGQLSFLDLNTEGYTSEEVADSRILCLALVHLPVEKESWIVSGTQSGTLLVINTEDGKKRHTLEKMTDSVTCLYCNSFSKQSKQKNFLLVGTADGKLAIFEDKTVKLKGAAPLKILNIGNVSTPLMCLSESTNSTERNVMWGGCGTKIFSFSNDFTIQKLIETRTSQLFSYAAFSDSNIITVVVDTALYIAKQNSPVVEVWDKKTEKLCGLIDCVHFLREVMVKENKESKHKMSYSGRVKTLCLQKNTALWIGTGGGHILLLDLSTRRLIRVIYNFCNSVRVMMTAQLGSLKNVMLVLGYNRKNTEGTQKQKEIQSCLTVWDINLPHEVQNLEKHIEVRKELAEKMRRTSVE
# Description: as §1, §2, §3, §4
# T1 sequence (Q5S007 whole entry G2019S): as the sequence (Q5S007 whole entry) above, with G2019S counted along it
SMILES,IC50 (full-length LRRK2 G2019S) [nM],IC50 [1] [nM]
"CC(C)Oc1nn(C)cc1Nc1ncc2cc(C#N)n([C@@H]3CO[C@H]3C)c2n1 (single isomer, unassigned) [Example 79, 7-[(trans)-2-methyloxetan-3-yl]-2-[(1-methyl-3-propan-2-yloxypyrazol-4-yl)amino]pyrrolo[2,3-d]pyrimidine-6-carbonitrile]",6,9
"COC[C@H](C)n1c(C#N)cc2cnc(Nc3cn(C)nc3O[C@@H]3CO[C@H]3C)nc21 (single isomer, unassigned) [Example 88]",12,20
"[2H]C([2H])([2H])n1cc(Nc2ncc3cc(C#N)n([C@@H](C)COC)c3n2)c(O[C@@H]2CO[C@H]2C)n1 (single isomer, unassigned) [Example 90]",8,16
"[2H]C([2H])([2H])n1cc(Nc2ncc3cc(C#N)n([C@@H](C)COC)c3n2)c(OC2COC2(C)C)n1 (single isomer, unassigned) [Example 99]",36,34
"[2H]C([2H])([2H])n1cc(Nc2ncc3cc(C#N)n([C@@H](C)COC)c3n2)c(OC2COC2(C)C)n1 (single isomer, unassigned) [Example 100]",39,40
"[2H]C([2H])([2H])n1cc(Nc2ncc3cc(C#N)n([C@@H](C)COC)c3n2)c(OC2CCOC2)n1 (single isomer, unassigned) [Example 101]",34,40
"[2H]C([2H])([2H])n1cc(Nc2ncc3cc(C#N)n([C@@H](C)COC)c3n2)c(OC2CCOC2)n1 (single isomer, unassigned) [Example 102]",41,39
"[2H]C([2H])([2H])n1cc(Nc2ncc3cc(C#N)n([C@H]4COC[C@@H]4C)c3n2)c(OC2COC(C)(C)C2)n1 (single isomer, unassigned) [Example 109]",38,26
"[2H]C([2H])([2H])n1cc(Nc2ncc3cc(C#N)n([C@H]4COC[C@@H]4C)c3n2)c(OC2COC(C)(C)C2)n1 (single isomer, unassigned) [Example 110]",8,4
"[2H]C([2H])([2H])n1cc(Nc2ncc3cc(C#N)n([C@H]4COC[C@@H]4C)c3n2)c(OC2CCOC2)n1 (single isomer, unassigned) [Example 111]",22,17
"[2H]C([2H])([2H])n1cc(Nc2ncc3cc(C#N)n([C@H]4COC[C@@H]4C)c3n2)c(OC2CCOC2)n1 (single isomer, unassigned) [Example 112]",16,13
"[2H]C([2H])([2H])n1cc(Nc2ncc3cc(C#N)n([C@H]4COC[C@@H]4C)c3n2)c(O[C@@H]2COC[C@H]2O)n1 (single isomer, unassigned) [Example 114]",28,20
"[2H]C([2H])([2H])n1cc(Nc2ncc3cc(C#N)n([C@H]4COC[C@@H]4C)c3n2)c(O[C@@H]2COC[C@H]2O)n1 (single isomer, unassigned) [Example 115]",17,14
"[2H]C([2H])([2H])n1cc(Nc2ncc3cc(C#N)n([C@@H](C)COC)c3n2)c(O[C@@H]2COC[C@H]2O)n1 (single isomer, unassigned) [Example 116]",50,43
"[2H]C([2H])([2H])n1cc(Nc2ncc3cc(C#N)n([C@@H](C)COC)c3n2)c(O[C@@H]2COC[C@H]2O)n1 (single isomer, unassigned) [Example 117]",50,34
"[2H]C([2H])([2H])n1cc(Nc2ncc3cc(C#N)n([C@H]4COC[C@@H]4C)c3n2)c(OC2COC2(C)C)n1 (single isomer, unassigned) [Example 118]",29,14
"[2H]C([2H])([2H])n1cc(Nc2ncc3cc(C#N)n([C@H]4COC[C@@H]4C)c3n2)c(OC2COC2(C)C)n1 (single isomer, unassigned) [Example 119]",17,12
"[2H]C([2H])([2H])n1cc(Nc2ncc3cc(C#N)n(C4CCOCC4)c3n2)c(OC2COC2(C)C)n1 (single isomer, unassigned) [Example 120, 2-((3-((2,2-dimethyloxetan-3-yl)oxy)-1-(methyl-d3)-1 H-pyrazol-4-yl)amino)-7-(tetrahydro-2H-pyran-4-yl)-7H-pyrrolo[2,3-d]pyrimidine-6-carbonitrile]",179,173
"[2H]C([2H])([2H])n1cc(Nc2ncc3cc(C#N)n(C4CCOCC4)c3n2)c(OC2COC2(C)C)n1 (single isomer, unassigned) [Example 121, 2-((3-((2,2-dimethyloxetan-3-yl)oxy)-1-(methyl-d3)-1 H-pyrazol-4-yl)amino)-7-(tetrahydro-2H-pyran-4-yl)-7H-pyrrolo[2,3-d]pyrimidine-6-carbonitrile]",181,133
"COCC(C)n1cc(Nc2ncc3cc(C#N)n(C4CCOCC4)c3n2)c(OC2CC2)n1 (single isomer, unassigned) [Example 126, 2-((3-cyclopropoxy-1-(1-methoxypropan-2-yl)-1 H-pyrazol-4-yl)amino)-7-(tetrahydro-2H-pyran-4-yl)-7H-pyrrolo[2,3-d]pyrimidine-6-carbonitrile]",83,77
"COCC(C)n1cc(Nc2ncc3cc(C#N)n(C4CCOCC4)c3n2)c(OC2CC2)n1 (single isomer, unassigned) [Example 127, 2-((3-cyclopropoxy-1-(1-methoxypropan-2-yl)-1 H-pyrazol-4-yl)amino)-7-(tetrahydro-2H-pyran-4-yl)-7H-pyrrolo[2,3-d]pyrimidine-6-carbonitrile]",183,144
"COCC(C)n1cc(Nc2ncc3cc(C#N)n([C@@H](C)COC)c3n2)c(OC2COC2)n1 (single isomer, unassigned) [Example 129]",37,41
"COCC(C)n1cc(Nc2ncc3cc(C#N)n([C@@H](C)COC)c3n2)c(OC2COC2)n1 (single isomer, unassigned) [Example 130]",57,61
"[2H]C([2H])([2H])n1cc(Nc2ncc3cc(C#N)n([C@@H](C)COC)c3n2)c(OC2C(C)(C)C(O)C2(C)C)n1 (single isomer, unassigned) [Example 132]",32,36
"[2H]C([2H])([2H])n1cc(Nc2ncc3cc(C#N)n([C@@H](C)COC)c3n2)c(OC2C(C)(C)C(O)C2(C)C)n1 (single isomer, unassigned) [Example 133]",14,13
"[2H]C([2H])([2H])n1cc(Nc2ncc3cc(C#N)n([C@@H](C)COC)c3n2)c(OC2CC(O)C2(C)C)n1 (single isomer, unassigned) [Example 134]",5,3
"[2H]C([2H])([2H])n1cc(Nc2ncc3cc(C#N)n([C@@H](C)COC)c3n2)c(OC2CC(O)C2(C)C)n1 (single isomer, unassigned) [Example 135]",39,43
"[2H]C([2H])([2H])n1cc(Nc2ncc3cc(C#N)n([C@@H](C)COC)c3n2)c(O[C@@H]2COC[C@@H]2O)n1 (single isomer, unassigned) [Example 136]",81,95
"[2H]C([2H])([2H])n1cc(Nc2ncc3cc(C#N)n(C4COCC4C)c3n2)c(OC2CCC2(C)O)n1 (single isomer, unassigned) [Example 141]",54,44
